From patent US11013784B2 (priority 2015, dated 2021) come the findings set out here.

This assay deals with SKOV3-Luc ovarian tumor cells. In kind it is cell-based, human.

In general, IC50 refers to the concentration at which inhibition is half-maximal. Read a high IC50 as a need for much substance. Take `N.N.[Cl][Pt][Cl]` [cisplatin]: the IC50 is 230 µM.
